# In patent US12655116B2, “Substituted isophthalic acid diamides” (Bayer Aktiengesellschaft, priority 2020, dated 2026):
# Assays:
# POLCO = assay: Pre-emergence herbicidal action against POLCO; format: in vivo, Polygonum convolvulus; details: Fallopia convolvulus, 504 h; for pest or weed control at 80 g/ha: dosage 80 g/ha
# Summary of the method: (§1)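 Sandy loam pots, seeds covered with soil, then surface-treated with WP or EC formulations at 600–800 l/ha water plus 0.2% wetting agent. Greenhouse, 3 weeks. Percent damage vs untreated controls.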
# AMARE [1] = assay: Post-emergence herbicidal action against AMARE; format: in vivo, Amaranthus retroflexus; details: Amaranthus retroflexus, 504 h, 20 g/ha, visual assessment about 3 weeks after treatment, 100% = plants have died, 0% = like control plants
# Summary of the method: (§2)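 Visual % rating (0% = as untreated, 100% = dead) ~3 wk after spraying one-leaf-stage plants grown in sandy loam; WP/EC in water at 600–800 l/ha, 0.2% wetting agent.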
# VIOTR [2] = assay: Pre-emergence herbicidal action against VIOTR; format: in vivo, Viola tricolor; details: Viola tricolor, 504 h; for pest or weed control at 80 g/ha: dosage 80 g/ha
# Summary of the method: as §1
# STEME = assay: Pre-emergence herbicidal action against STEME; format: in vivo, Stellaria media; details: Stellaria media, 504 h, dosage 80 g/ha
# Description: Seeds of monocotyledonous and dicotyledonous weed plants and crop plants are laid out in sandy loam soil in wood-fiber pots and covered with soil. The compounds of the invention, formulated in the form of wettable powders (WP) or as emulsion concentrates (EC), are then applied to the surface of the covering soil in the form of an aqueous suspension or emulsion at a water application rate equivalent to 600 to 800 l/ha, with addition of 0.2% wetting agent. After the treatment, the pots are placed in a greenhouse and kept under good growth conditions for the trial plants. The damage to the test plants is scored visually after a test period of 3 weeks by comparison with untreated controls (herbicidal activity in percent (%): 100% activity=the plants have died, 0% activity=like control plants). […] The tables below illustrate, in an illustrative manner, the post-emergence herbicidal action of the compounds of the invention, the herbicidal activity being stated in percent.
# AMARE [3] = assay: Pre-emergence herbicidal action against AMARE; format: in vivo, Amaranthus retroflexus; details: Amaranthus retroflexus, 504 h, scored visually after 3 weeks vs untreated controls, 100% = plants have died, 0% = like control plants
# Summary of the method: as §1
# VERPE [4] = assay: Pre-emergence herbicidal action against VERPE; format: in vivo, Veronica persica; details: Veronica persica, 504 h; for pest or weed control at 80 g/ha: dosage 80 g/ha
# Summary of the method: as §1
# VIOTR [5] = assay: Post-emergence herbicidal action against VIOTR; format: in vivo, Viola tricolor; details: Viola tricolor, 504 h
# Summary of the method: as §2
# MATIN [6] = assay: Pre-emergence herbicidal action against MATIN; format: in vivo, Matricaria inodora; details: Tripleurospermum inodorum, 504 h; for pest or weed control at 20 g/ha: dosage 20 g/ha; for pest or weed control at 80 g/ha: dosage 80 g/ha
# Summary of the method: as §1
# DIGSA [7] = assay: Pre-emergence herbicidal action against DIGSA; format: in vivo, Digitaria sanguinalis; details: Digitaria sanguinalis, 504 h; for pest or weed control at 80 g/ha: dosage 80 g/ha
# Summary of the method: as §1
# AVEFA = assay: Pre-emergence herbicidal action against AVEFA; format: in vivo, Avena fatua; details: Avena fatua, 504 h; 80 g/ha, pre-emergence
# Summary of the method: as §1
# PHBPU [8] = assay: Pre-emergence herbicidal action against PHBPU; format: in vivo, Pharbitis purpurea; details: Ipomoea purpurea, 504 h, dosage 80 g/ha
# Summary of the method: as §1
# DIGSA [9] = assay: Post-emergence herbicidal action against DIGSA; format: in vivo, Digitaria sanguinalis; details: Digitaria sanguinalis, 504 h
# Summary of the method: as §2
# SETVI [10] = assay: Pre-emergence herbicidal action against SETVI; format: in vivo, Setaria viridis; details: Setaria viridis, 504 h
# Summary of the method: as §1
# ECHCG = assay: Pre-emergence herbicidal action against ECHCG; format: in vivo, Echinochloa crus-galli; details: Echinochloa crus-galli, 504 h, 80 g/ha
# Summary of the method: as §1
# ABUTH [11] = assay: Post-emergence herbicidal action against ABUTH; format: in vivo, Abutilon theophrasti; details: Abutilon theophrasti, 504 h, dosage 20 g/ha, visual assessment about 3 weeks after treatment vs untreated controls
# Summary of the method: as §2
# ALOMY [12] = assay: Post-emergence herbicidal action against ALOMY; format: in vivo, Alopecurus myosuroides; details: Alopecurus myosuroides, 504 h, dosage 20 g/ha, visual assessment about 3 weeks after treatment vs untreated controls
# Summary of the method: as §2
# PHBPU [13] = assay: Post-emergence herbicidal action against PHBPU; format: in vivo, Pharbitis purpurea; details: Ipomoea purpurea, 504 h, dosage 20 g/ha
# Summary of the method: as §2
# VERPE [14] = assay: Post-emergence herbicidal action against VERPE; format: in vivo, Veronica persica; details: Veronica persica, 504 h
# Summary of the method: as §2
# ABUTH [15] = assay: Pre-emergence herbicidal action against ABUTH; format: in vivo, Abutilon theophrasti; details: Abutilon theophrasti, 504 h; for pest or weed control at 80 g/ha: scored visually after 3 weeks vs untreated controls (100% = plants have died, 0% = like control plants)
# Summary of the method: as §1
# SETVI [16] = assay: Post-emergence herbicidal action against SETVI; format: in vivo, Setaria viridis; details: Setaria viridis, 504 h
# Summary of the method: as §2
# MATIN [17] = assay: Post-emergence herbicidal action against MATIN; format: in vivo, Matricaria inodora; details: Tripleurospermum inodorum, 504 h
# Summary of the method: as §2
# ALOMY [18] = assay: Pre-emergence herbicidal action against ALOMY; format: in vivo, Alopecurus myosuroides; details: Alopecurus myosuroides, 504 h, pre-emergence
# Summary of the method: as §1
Compound,pest or weed control at 80 g/ha (POLCO) [%],pest or weed control at 20 g/ha (AMARE [1]) [%],pest or weed control at 80 g/ha (VIOTR [2]) [%],pest or weed control at 80 g/ha (STEME) [%],pest or weed control at 20 g/ha (AMARE [3]) [%],pest or weed control at 80 g/ha (AMARE [3]) [%],pest or weed control at 80 g/ha (VERPE [4]) [%],pest or weed control at 5 g/ha (VIOTR [5]) [%],pest or weed control at 20 g/ha (VIOTR [5]) [%],pest or weed control at 20 g/ha (MATIN [6]) [%],pest or weed control at 80 g/ha (MATIN [6]) [%],pest or weed control at 80 g/ha (DIGSA [7]) [%],pest or weed control at 20 g/ha (ABUTH [11]) [%],pest or weed control at 80 g/ha (ABUTH [15]) [%],also measured
Cn1nnnc1NC(=O)c1ccc(S(C)(=O)=O)c(C(=O)NC2CC2)c1Cl [Example 1-125],80,80,100,100,90,100,80,100,100,80,100,90,–,–,pest or weed control at 20 g/ha (POLCO; dosage 20 g/ha): 80%; pest or weed control at 20 g/ha (VERPE [4]; dosage 20 g/ha): 80%
CCn1nnnc1NC(=O)c1ccc(C(F)(F)F)c(C(=O)NC)c1Br [Example 2-207],90,100,100,–,100,100,90,100,100,90,100,100,90,100,"pest or weed control at 80 g/ha (AVEFA): 90%; pest or weed control at 80 g/ha (PHBPU [8]): 80%; pest or weed control at 5 g/ha (DIGSA [9]; 5 g/ha): 80%; pest or weed control at 20 g/ha (DIGSA [9]; 20 g/ha): 100%; pest or weed control at 20 g/ha (SETVI [10]; dosage 20 g/ha): 100%; pest or weed control at 80 g/ha (SETVI [10]; dosage 80 g/ha): 100%; pest or weed control at 80 g/ha (ECHCG): 100%; pest or weed control at 20 g/ha (VIOTR [2]; dosage 20 g/ha): 90%; pest or weed control at 20 g/ha (ALOMY [12]): 90%; pest or weed control at 20 g/ha (PHBPU [13]): 80%; pest or weed control at 5 g/ha (VERPE [14]; 5 g/ha): 80%; pest or weed control at 20 g/ha (VERPE [14]; 20 g/ha): 90%; pest or weed control at 20 g/ha (ABUTH [15]; dosage 20 g/ha, scored visually after 3 weeks vs untreated controls, 100% = plants have died, 0% = like control plants, read-out: Pre-emergence action against ABUTH (herbicidal activity in percent)): 100%; pest or weed control at 5 g/ha (SETVI [16]; dosage 5 g/ha): 90%; pest or weed control at 20 g/ha (SETVI [16]; dosage 20 g/ha): 100%; pest or weed control at 5 g/ha (MATIN [17]; dosage 5 g/ha): 80%; pest or weed control at 20 g/ha (MATIN [17]; dosage 20 g/ha): 90%; pest or weed control at 80 g/ha (ALOMY [18]; 80 g/ha, scored visually after 3 weeks vs untreated controls (100% = plants have died, 0% = like control plants)): 90%; pest or weed control at 20 g/ha (ALOMY [18]; 20 g/ha, scored visually after 3 weeks, 100% = plants have died, 0% = like control plants): 80%; pest or weed control at 20 g/ha (DIGSA [7]; dosage 20 g/ha): 90%"
CNC(=O)c1c(S(C)(=O)=O)ccc(C(=O)Nc2nnnn2C)c1Cl [Example 1-123],–,80,80,90,80,100,–,–,100,80,100,90,80,100,–
